Results as given in ChEMBL document CHEMBL1201862, “PubChem BioAssay data set” (2004).
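Briefly, cells in 96-well plates were exposed to five compound concentrations for 48 h, and endpoints were estimated by linear interpolation. The concentration for 50% growth inhibition is given as GI50.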 Calls of active or inactive are those of the source. No stated cut-off is given here; in the data, active = GI50 up to about 1.1 µM and inactive = higher.

Experiments:
Test in all cases: growth of human tumour cells (NCI), 48 h
TK-10 = test system: TK-10
SK-MEL-2 = test system: SK-MEL-2
MCF7 = test system: MCF7
SK-OV-3 = test system: SK-OV-3
MDA-N = test system: MDA-N
IGROV-1 = test system: IGROV-1
RXF 393 = test system: RXF 393
SN12C = test system: SN12C
OVCAR-4 = test system: OVCAR-4
NCI-H226 = test system: NCI-H226
U-251 = test system: U-251
T47D = test system: T47D
EKVX = test system: EKVX
HT-29 = test system: HT-29
NCI-H460 = test system: NCI-H460
RPMI-8226 = test system: RPMI-8226
HCT-15 = test system: HCT-15
OVCAR-5 = test system: OVCAR-5
COLO 205 = test system: COLO 205
A498 = test system: A498

SMILES | GI50 (TK-10) | GI50 (SK-MEL-2) | GI50 (MCF7) | GI50 (SK-OV-3) | GI50 (MDA-N) | GI50 (IGROV-1) | GI50 (RXF 393) | GI50 (SN12C) | GI50 (OVCAR-4) | GI50 (NCI-H226) | GI50 (U-251) | GI50 (T47D) | GI50 (EKVX) | GI50 (HT-29) | GI50 (NCI-H460) | GI50 (RPMI-8226) | GI50 (HCT-15) | GI50 (OVCAR-5) | GI50 (COLO 205) | GI50 (A498)
OC1CCCC1C(O)(C(F)(F)F)C(F)(F)F (stereo not given) | > 100 µM (inactive) | > 100 µM (inactive) | > 100 µM (inactive) | > 100 µM (inactive) | > 100 µM (inactive) | > 100 µM (inactive) | > 100 µM (inactive) | > 100 µM (inactive) | > 100 µM (inactive) | > 100 µM (inactive) | > 100 µM (inactive) | > 100 µM (inactive) | > 100 µM (inactive) | > 100 µM (inactive) | > 100 µM (inactive) | > 100 µM (inactive) | > 100 µM | > 100 µM (inactive) | > 100 µM (inactive) | > 100 µM (inactive)
CC(=O)Nc1c2sscc-2n(C)c1=O [THIOLUTIN] | 2.15 µM (inactive) | 1.88 µM (inactive) | 0.63 µM (active) | 1.2 µM (inactive) | 1.56 µM (inactive) | 1.86 µM (inactive) | 1.71 µM (inactive) | 1.87 µM (inactive) | 1.56 µM (inactive) | 1.89 µM (inactive) | 1.12 µM (active) | 1.58 µM (inactive) | 1.87 µM (inactive) | 0.272 µM (active) | 0.537 µM (active) | 0.575 µM (active) | 1.32 µM | 1.6 µM (inactive) | 0.596 µM (active) | 1.86 µM (inactive)
O=C(O)C(CCc1ccccn1)c1ccccc1 (stereo not given) | > 100 µM (inactive) | > 100 µM (inactive) | > 100 µM (inactive) | > 100 µM (inactive) | > 100 µM (inactive) | > 100 µM (inactive) | > 100 µM (inactive) | > 100 µM (inactive) | > 100 µM (inactive) | > 100 µM (inactive) | > 100 µM (inactive) | > 100 µM (inactive) | > 100 µM (inactive) | > 100 µM (inactive) | > 100 µM (inactive) | > 100 µM (inactive) | > 100 µM | > 100 µM (inactive) | > 100 µM (inactive) | > 100 µM (inactive)
COC1=CC(=O)C2=C(C1=O)[C@H]1CC[C@]3(C)[C@@H](O)CC[C@H]3[C@@H]1CC2 | 27.9 µM (inactive) | 13.9 µM (inactive) | 17 µM (inactive) | 45 µM (inactive) | 17.5 µM (inactive) | 21.9 µM (inactive) | 20.8 µM (inactive) | 17 µM (inactive) | 17.2 µM (inactive) | 17.7 µM (inactive) | 17 µM (inactive) | 13.8 µM (inactive) | 16.8 µM (inactive) | 4.71 µM (inactive) | 18.3 µM (inactive) | 19.3 µM (inactive) | 18 µM | 19.2 µM (inactive) | 10.7 µM (inactive) | 52.8 µM (inactive)
CC(=O)NC1COC(COC(=O)CCCCCCCCCCNC(=O)c2ccc([N+](=O)[O-])c3c(=O)c4ccccc4[nH]c23)C(O)C1OC(C)C(=O)NC(C(=O)NC(CCC(N)=O)C(=O)OCc1ccccc1)C(C)C (stereo not given) | 18.5 µM (inactive) | 11 µM (inactive) | 6.61 µM (inactive) | 39.2 µM (inactive) | 0.966 µM (active) | 6.38 µM (inactive) | 4.02 µM (inactive) | 32.6 µM (inactive) | 8.26 µM (inactive) | 44.9 µM (inactive) | 11.5 µM (inactive) | 2.25 µM (inactive) | 8.69 µM (inactive) | 6.67 µM (inactive) | 16.9 µM (inactive) | 4.97 µM (inactive) | 11.2 µM | 36 µM (inactive) | 18.8 µM (inactive) | 28.8 µM (inactive)
O=C1/C(=C\c2cccc(Oc3ccccc3)c2)S(=O)(=O)C(c2ccccc2)N1c1ccc(Cl)cc1 (stereo not given) | 92.3 µM (inactive) | 8.36 µM (inactive) | 12.6 µM (inactive) | 32.2 µM (inactive) | 14.6 µM (inactive) | 14.7 µM (inactive) | 14.7 µM (inactive) | 15.6 µM (inactive) | 13.1 µM (inactive) | 43.1 µM (inactive) | 16 µM (inactive) | 5.55 µM (inactive) | 23 µM (inactive) | 14.3 µM (inactive) | 14.2 µM (inactive) | 12.3 µM (inactive) | 13.7 µM | 11.7 µM (inactive) | 14.3 µM (inactive) | 34.4 µM (inactive)
O=C(CCN1CC2CCC(CC2)C1)c1cccs1 | 8.73 µM (inactive) | 17.3 µM (inactive) | 8.59 µM (inactive) | > 37.8 µM (inactive) | 17.1 µM (inactive) | 8.73 µM (inactive) | 19 µM (inactive) | 18.1 µM (inactive) | 30.8 µM (inactive) | > 100 µM (inactive) | 18.3 µM (inactive) | 6.92 µM (inactive) | 19.1 µM (inactive) | 24.5 µM (inactive) | 18.7 µM (inactive) | 1.85 µM (inactive) | 20.4 µM | 16.4 µM (inactive) | 18.5 µM (inactive) | > 87.7 µM (inactive)
Cc1c(-c2ccccc2)c(C#N)c2nnn(C)c(=O)n12 | > 100 µM (inactive) | > 100 µM (inactive) | > 100 µM (inactive) | 96.2 µM (inactive) | > 100 µM (inactive) | > 100 µM (inactive) | 57.1 µM (inactive) | > 100 µM (inactive) | > 100 µM (inactive) | > 100 µM (inactive) | > 100 µM (inactive) | > 100 µM (inactive) | > 100 µM (inactive) | > 100 µM (inactive) | > 100 µM (inactive) | > 100 µM (inactive) | > 100 µM | > 100 µM (inactive) | > 100 µM (inactive) | 91.6 µM (inactive)
Cc1ccc(C)c(C(=N)c2ccccc2Cc2ccccc2)c1 | 47.9 µM (inactive) | 15.3 µM (inactive) | 15.7 µM (inactive) | 26.8 µM (inactive) | 23 µM (inactive) | 25.6 µM (inactive) | 20 µM (inactive) | 17.3 µM (inactive) | 19.4 µM (inactive) | 16.4 µM (inactive) | 15.5 µM (inactive) | 21 µM (inactive) | 19 µM (inactive) | 12.9 µM (inactive) | 14.7 µM (inactive) | 12.3 µM (inactive) | 24.7 µM | 25.9 µM (inactive) | 26.9 µM (inactive) | 21.7 µM (inactive)
CCOC(=O)CCC(C(=O)OCC)n1nnc2ccc(Nc3c(C)[n+]([O-])c4cc(F)c(OCC)cc4[n+]3[O-])cc21 (stereo not given) | > 100 µM (inactive) | 32.3 µM (inactive) | 22.5 µM (inactive) | > 100 µM (inactive) | 46.3 µM (inactive) | 48.1 µM (inactive) | 41.8 µM (inactive) | 45.4 µM (inactive) | 36.4 µM (inactive) | 48.5 µM (inactive) | 63.8 µM (inactive) | 30.2 µM (inactive) | 44.7 µM (inactive) | 56.8 µM (inactive) | 60.3 µM (inactive) | 21.5 µM (inactive) | 52.8 µM | > 100 µM (inactive) | 28.2 µM (inactive) | > 100 µM (inactive)
Oc1c(Br)c(-c2ccccc2)nc2ccccc12 | 57.8 µM (inactive) | > 10 µM (inactive) | 59.2 µM (inactive) | > 100 µM (inactive) | 39.2 µM (inactive) | 9.55 µM (inactive) | 63.1 µM (inactive) | 6.67 µM (inactive) | 39.6 µM (inactive) | 8.47 µM (inactive) | 98.4 µM (inactive) | 8.3 µM (inactive) | 7.85 µM (inactive) | > 60.4 µM (inactive) | 10 µM (inactive) | 20.7 µM (inactive) | > 62.5 µM | > 10 µM (inactive) | > 21.7 µM (inactive) | 5.35 µM (inactive)
c1ccc2c3ccn4ccc5c6ccccc6[nH]c5c4c-3nc2c1 | 2.62 µM (inactive) | 1.72 µM (inactive) | 0.331 µM (active) | 1.52 µM (inactive) | 1.34 µM (inactive) | 1.25 µM (inactive) | 1.32 µM (inactive) | 0.735 µM (active) | 0.394 µM (active) | 1.67 µM (inactive) | 0.155 µM (active) | 1.15 µM (inactive) | 1.02 µM (active) | 0.391 µM (active) | 0.498 µM (active) | 0.255 µM (active) | 0.344 µM | 1.57 µM (inactive) | 0.583 µM (active) | 1.63 µM (inactive)
Cc1c(C(=O)NNc2ccccc2)n2c(S)nnc2c2ccccc12 | > 100 µM (inactive) | > 100 µM (inactive) | > 100 µM (inactive) | > 100 µM (inactive) | > 100 µM (inactive) | > 100 µM (inactive) | 82.2 µM (inactive) | > 100 µM (inactive) | > 100 µM (inactive) | > 100 µM (inactive) | > 100 µM (inactive) | 40.5 µM (inactive) | > 100 µM (inactive) | > 100 µM (inactive) | > 100 µM (inactive) | 58.2 µM (inactive) | > 100 µM | > 100 µM (inactive) | > 100 µM (inactive) | > 100 µM (inactive)
CC(C)=CCC[C@@H](C)C1=C(O)C(=O)C(C)=C(Nc2ccccc2F)C1=O | 29.9 µM (inactive) | 18.7 µM (inactive) | 24.8 µM (inactive) | 25.7 µM (inactive) | 23.1 µM (inactive) | 32.6 µM (inactive) | 12.7 µM (inactive) | 15 µM (inactive) | 15 µM (inactive) | 17.9 µM (inactive) | 9.33 µM (inactive) | 14.6 µM (inactive) | 49.2 µM (inactive) | 33.3 µM (inactive) | 12 µM (inactive) | 8.26 µM (inactive) | 5.2 µM | 60.4 µM (inactive) | 23.4 µM (inactive) | 16.6 µM (inactive)
